In one series the test system is HCT116 colorectal cells. In words: Cell viability assay (CellTiter-Glo) in HCT116 cells. The conditions noted are these: Homo sapiens. In kind it is cell-based. As for the experimental part: HCT116 colorectal cells were used in these experiments. HCT116 cells were obtained from ATCC. The CellTiter-Glo® Luminescent Cell Viability Assay Reagent was obtained from Promega.
Into a 96-well plate, 3000 HCT116 cells were seeded with 100 μL of media (McCoy's 5A Medium supplemented with 10% FBS, 100 units penicillin, and 100 μg streptomycin per mL) 24h before the experiment. For compound treatment, the liquid handling system-Pico machine was used to prepare all the compounds. Each master plate contained serial dilution of 2 compounds, including the control compound E7820. 10 mM compound stock was added to each well of the assay plate to give final concentrations of […], 0.003, 0.002 and 0 μM. Each concentration was tested in triplicate. After 72h, cell viability was determined using CellTiter-Glo Luminescent Cell Viability Assay Reagent following the manufacturer's recommended protocol. Briefly, equilibrate the assay plate and its contents at room temperature for approximately 30 minutes. 100 μL of CellTiter-Glo reagent was added to each well of the assay plate and the contents were mixed for 2 minutes at 500 rpm on an orbital shaker to induce cell lysis (Fisherbrand). The plate was incubated at room temperature for 10 minutes to stabilize luminescent signal. Then the plate was immediately placed in a plate reader (PerkinElmer Multimode Plate Reader Envision2105) and the luminescence signal (0.5 second per well integration time) was determined. IC50 values were calculated using Graphpad Prism 9 software.
Cell viability assays were performed to compare the potency of Compound 1 to Compound 143.
(In general: ATP-based viability assays read luminescence as a measure of living cells.)

The next series deals with T1, MDR1 (Homo sapiens, UniProt P08183).
T1 construct: expressed in transfected cells; host or cells: MDCK-MDR1 cells (MDCK host)
T1 sequence (P08183 whole entry): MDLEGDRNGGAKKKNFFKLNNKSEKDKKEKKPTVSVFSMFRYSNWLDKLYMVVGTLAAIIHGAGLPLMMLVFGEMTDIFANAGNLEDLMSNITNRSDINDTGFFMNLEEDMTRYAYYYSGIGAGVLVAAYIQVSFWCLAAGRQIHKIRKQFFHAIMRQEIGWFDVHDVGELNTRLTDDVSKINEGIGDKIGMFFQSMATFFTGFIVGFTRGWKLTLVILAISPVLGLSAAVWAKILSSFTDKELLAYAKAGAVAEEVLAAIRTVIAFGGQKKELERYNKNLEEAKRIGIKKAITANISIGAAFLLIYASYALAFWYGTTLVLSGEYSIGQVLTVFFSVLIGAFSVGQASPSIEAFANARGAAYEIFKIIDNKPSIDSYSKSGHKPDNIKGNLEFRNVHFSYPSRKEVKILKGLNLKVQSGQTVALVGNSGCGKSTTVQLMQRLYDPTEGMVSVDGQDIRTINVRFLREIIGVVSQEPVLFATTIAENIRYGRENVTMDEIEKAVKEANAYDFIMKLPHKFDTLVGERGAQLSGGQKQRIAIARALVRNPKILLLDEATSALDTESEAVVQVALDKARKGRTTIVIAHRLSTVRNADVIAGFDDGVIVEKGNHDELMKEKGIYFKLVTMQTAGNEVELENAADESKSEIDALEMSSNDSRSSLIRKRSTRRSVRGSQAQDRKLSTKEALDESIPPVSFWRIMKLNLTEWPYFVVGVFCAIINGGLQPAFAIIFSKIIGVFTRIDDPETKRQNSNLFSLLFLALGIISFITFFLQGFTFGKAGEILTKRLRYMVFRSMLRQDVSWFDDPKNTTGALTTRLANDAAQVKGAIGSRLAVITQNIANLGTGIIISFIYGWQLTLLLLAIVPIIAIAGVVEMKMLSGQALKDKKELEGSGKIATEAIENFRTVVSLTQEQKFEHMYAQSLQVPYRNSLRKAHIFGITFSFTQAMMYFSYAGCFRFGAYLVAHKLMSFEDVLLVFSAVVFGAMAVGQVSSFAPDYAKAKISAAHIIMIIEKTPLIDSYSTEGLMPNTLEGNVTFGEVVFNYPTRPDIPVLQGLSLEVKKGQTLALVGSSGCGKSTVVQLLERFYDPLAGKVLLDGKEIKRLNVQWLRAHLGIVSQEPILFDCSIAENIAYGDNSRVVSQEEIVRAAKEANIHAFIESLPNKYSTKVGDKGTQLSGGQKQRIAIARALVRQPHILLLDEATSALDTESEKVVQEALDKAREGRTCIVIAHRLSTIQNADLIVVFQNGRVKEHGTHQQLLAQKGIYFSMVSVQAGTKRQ
In words: MDCK-MDR1 permeability / efflux assay. In kind it is in vitro ADME, canine. The conditions noted are these: dog; for Papp A→B at 2 h, 1 µM: MDCK-MDR1, pH 7.4, MDCK cells, apical to basolateral. As for the experimental part: To prepare transport buffer (HBSS with 10 mM HEPES, pH 7.4), 2.383 g of HEPES and 0.35 g sodium hydrogen carbonate was accurately weighed and added into 900 mL of pure water, then sonicated to dissolve the content. Into the solution was transferred 100 mL of 10×HBSS, and the solution was placed on a stirrer. The pH of the solution was slowly adjusted with sodium hydroxide to 7.4, followed with filtering.
MDCK-MDR1 plate(s) were removed from the incubator. The monolayer was washed the monolayer twice with pre-warmed HBSS (10 mM HEPES, pH 7.4). Then the plate(s) were incubated at 37° C. for 30 minutes.
Propranolol was used as the high permeability marker. Digoxin was used as the substrate of […] (MDR1). Stock solutions of test compound(s) and digoxin in DMSO at 0.2 mM were prepared and diluted with HBSS (10 mM HEPES, pH 7.4) to get 1 μM working solutions. Stock solutions of propranolol in DMSO at 1 mM was prepared and diluted with HBSS (10 mM HEPES, pH 7.4) to get 5 μM working solutions.
To determine the rate of drug transport in the apical to basolateral direction, 125 μL of the working solution was added to the Transwell insert (apical compartment), and a 50 μL sample was immediately transferred from the apical compartment to 200 μL quenching solvents (acetonitrile with 100 nM alprazolam, 200 nM caffeine, 200 nM labetalol and 100 nM tolbutamide) in a new 96-well plate as the initial donor sample (A-B). The plate was shaken at 1000 rpm for 10 minutes. The wells in the receiver plate (basolateral compartment) were filled with 235 μL of transport buffer. All incubations were performed in duplicate.
To determine the rate of drug transport in the basolateral to apical direction, 285 μL of the 1 μM working solution was added to the receiver plate wells (basolateral compartment), and a 50 μL sample was immediately transferred from the basolateral compartment to 200 μL quenching solvents (acetonitrile with 100 nM alprazolam, 200 nM caffeine, 200 nM labetalol and 100 nM tolbutamide) in a new 96-well plate as the initial donor sample (B-A). Shake the plate at 1000 rpm 10 minutes. The Transwell insert (apical compartment) was filled with 75 μL of transport buffer. The apical to basolateral direction and the basolateral to apical direction were done at the same time.
The Transwell insert plate was inserted into the basolateral plate, transferred into the incubator and incubated at 37° C. for 2 hours.
At the end of the incubation, 50 μL samples from donor sides (apical compartment for Ap→Bl flux, and basolateral compartment for Bl→Ap flux) and receiver sides (basolateral compartment for Ap→Bl flux, and apical compartment for Bl→Ap flux) were transferred to wells of a new 96-well plate, followed by the addition of 4 volume of quenching solvents (acetonitrile with 100 nM alprazolam, 200 nM caffeine, 200 nM labetalol and 100 nM tolbutamide). Samples were Vortexed for 10 minutes and then centrifuged at 3,220 g for 40 minutes. An aliquot of 100 μL of the supernatant was mixed with an appropriate volume of ultra-pure water before LC-MS/MS analysis.
To determine the Lucifer yellow leakage after 2-hour transport period, Lucifer yellow working solutions were prepared by diluting the stock solution with HBSS (10 mM HEPES, pH 7.4) to reach the final concentration of 100 μM. To the apical compartment, 100 μL of the Lucifer yellow solution were added. The plate(s) were incubated at 37° C. for 30 minutes and 80 μL was directly removed from the apical and basolateral wells and transferred to new 96 wells plates. Lucifer yellow fluorescence (to monitor monolayer integrity) was measured in a fluorescence plate reader at 485 nm excitation and 530 nm emission.

The nature of series [1]: Telencephalon concentrations after oral administration. In kind it is in vivo, female BALB/c mice. The settings on record: for AUC(0-t) / Cmax: mouse, 20 mg/kg, telencephalon, female BALB/c mice, Table 8.
Series [2] is described as follows: General solubility protocol (PBS, pH 7.4). Format: physicochemical. The conditions noted are these: PBS buffer, aqueous buffer, kinetic from dmso stock, pH 7.4, 25° C. The protocol:
Into a 96-well rack, 15 μL of stock solution (10 mM) of each sample was placed. Into each vial of a cap-less Solubility Sample plate 485 μL of buffer was added. The assay was performed in duplicate. To each vial one stir stick was added and each vial was sealed using a molded PTFE/Silicone plug. The Solubility Sample plate was then transferred to an Eppendorf Thermomixer Comfort plate shaker and shake at 25° C. at 1100 RPM for 2 hours. […] Using a vacuum manifold, all the samples were filtered. An aliquot of 5 μL was taken from the filtrate and 5 μL blank DMSO followed by addition of 490 μL of a mixture of H2O and acetonitrile containing an internal standard (1:1). The dilution factor may be changed according to the solubility value and the LC/MS signal response.

The mark [3] stands for this setting: HCT-116, 72h, CellTiter-Glo, read-out: HCT116 Assay (IC50).
Setting [4] is: HCT-116, FIG. 5, read-out: IC50 for inhibiting cell growth in HCT116 colorectal cells.
[5] abbreviates: MDCK-MDR1, pH 7.4, MDCK cells, Table 6, read-out: MDCK Permeability Efflux Ratio.
Setting [6] is: MDCK-MDR1, pH 7.4, MDCK-MDR1, 1 μM, 2 hours, Table 3, read-out: MDCK-MDR1 Efflux ratio.

Structures are written as SMILES. Values after ≈ are worked out from the molar mass of the structure shown. Where two headings read alike, the source gives them in different places.

What is called IC50 is the concentration at which inhibition is half-maximal. Usually Papp A→B stands for the apparent permeability from the apical to the basolateral side of a cell layer. A low value points to poor permeation. Broadly, the AUC(0-t) is the area under the concentration-time curve up to a stated or last time point. The Cmax is the maximum level reached in the sampled fluid or tissue. Take `[2H]C([2H])([2H])c1ncc(S(=O)(=O)Nc2ccc(C)c3c(C#N)c[nH]c23)s1` [Compound 143, N-(3-cyano-4-methyl-1H-indol-7-yl)-2-(methyl-d3)thiazole-5-sulfonamide]: the IC50 in the series on HCT116 colorectal cells (setting [3]) was below 0.5 µM. Also, the IC50 in the series with HCT116 colorectal cells (setting [4]) was 0.255 µM. Also, the efflux ratio at 2 h, 1 µM at MDR1 (setting [5]) amounted to 12. Moreover, the Papp A→B at 2 h, 1 µM on MDR1 (Table 6) was determined as 2.9 ×10⁻⁶ cm/s. The “increase in telencephalon AUC compared to Compound 1” value in series [1] (compared to Compound 1) stood at 2.5 fold. In series [1], the exposure AUC(0-t) amounted to 2060 ng·h/mL and the peak level (Cmax) was 373 ng/mL.
For orientation: solubility means the dissolved amount per volume that the medium holds. A low value points to a poorly soluble substance. As for `Cc1ncc(S(=O)(=O)Nc2ccc(C)c3c(C#N)c[nH]c23)s1` [Compound 1, N-(3-cyano-4-methyl-1H-indol-7-yl)-2-methyl-thiazole-5-sulfonamide], the IC50 was below 0.5 µM with HCT116 colorectal cells (setting [3]) and 0.259 µM in the series with HCT116 colorectal cells (setting [4]). The solubility at 2 h in series [2] stood at 51.5 µM (≈ 17.1 µg/mL). Besides, the efflux ratio at 2 h, 1 µM at MDR1 (setting [5]) stood at 26; at MDR1 (setting [6]), 25.5. On MDR1 (Table 6), this molecule displayed a Papp A→B at 2 h, 1 µM of 1.9 ×10⁻⁶ cm/s. Further, the “increase in telencephalon AUC compared to E7820” value in series [1] (compared to E7820) is 2 fold. The molecule also yielded an AUC(0-t) in series [1] of 774 ng·h/mL. Besides, in series [1], the highest concentration (Cmax) turned out to be 193 ng/mL.
As for `Cc1ccc(NS(=O)(=O)c2cccc(C#N)c2)c2[nH]cc(C#N)c12` [Compound E7820, E7820, reference compound], the concentration in solution in series [2] (solubility at 2 h) came to 80.7 µM (≈ 27.2 µg/mL). Moreover, the efflux ratio at 2 h, 1 µM on MDR1 (setting [5]) was determined as 30; at MDR1 (setting [6]), 29.9. The same molecule showed a Papp A→B at 2 h, 1 µM on MDR1 (Table 6) of 1.1 ×10⁻⁶ cm/s.

For the origin of these results see US20260116874A1, “HETEROAROMATIC INDOLESULFONAMIDES” (SEED Therapeutics, Inc., priority 2023, published 2026).
